These results are taken from US20180207111A1, “IMMUNOTHERAPY FOR CASR-EXPRESSING CANCER (E.G. NEUROBLASTOMA)” (HOSPITAL SANT JOAN DE DEU, priority 2015, published 2018).

The experiment deals with LA-N-1 cells. Nature of the experiment: Morphological assessment of neuroblastoma cells exposed to Cinacalcet. It is filed as cell-based, Homo sapiens. To be noted: 1 μM Cinacalcet vs DMSO; day 3. On the procedure: FIG. 1 is a micrograph showing the morphological assessment of LA-N-1 cells exposed to 1 μM Cinacalcet (C) or DMSO (vehicle (V)) for 3 days (3d) and 14 days (14d).
Three neuroblastoma cell lines LA-N-1, SK-N-LP and SH-SY5Y were used for this purpose. […] No expression of the CaSR is detectable in SH-SY5Y either. Thus, SK-N-LP and SH-SY5Y were stably transfected with pCMV-CaSR-GFP or pCMV-GFP. All cell lines were grown in the presence of 1 μM Cinacalcet (Selleck Chemicals, S1260) or DMSO for 21 days in P100 plates. Morphology was assessed daily. Total RNA was isolated at days 1, 3, 5, 7, 10, 14 and 21. Several markers were analyzed by RT-qPCR using SYBRgreen and specific primers or Taqman technology and gene-specific Assays-on-Demand (Applied Biosystems) (Table 1).
These features reached maximal expression between days 7 and 14 (FIG. 1). […] Neuroblastoma cytodifferentiation is an indication of this tumor becoming more benign, less proliferative. […] Moreover, upregulation of these differentiation-associated genes and CTAs both in vitro and in vivo (see Examples 2-4) validates the proposed in vitro model (doses used, time of exposure, etc) as a good model to evaluate neuroblastoma response to treatment with Cinacalcet.

On to `C[C@@H](NCCCc1cccc(C(F)(F)F)c1)c1cccc2ccccc12` [Cinacalcet], for which the “Morphological features of neuronal differentiation” value is on record as “extensive neurite outgrowth”.
